Measurements taken from patent US9802943B2, “HIV inhibiting bicyclic pyrimidine derivatives” (Janssen Sciences Ireland UC, priority 2004, dated 2017).

What was measured:
Format in all cases: cell-based
[1] = system: Strain IIIB (wild type HIV-LAI strain); experiment: cellular antiviral assay, wild type HIV; settings: for pEC50 IIIB: strain IIIB, wild type HIV-LAI; for EC50: Human immunodeficiency virus 1, IIIB, read-out: pEC50 IIIB (converted)
Protocol: (§1) Because of the increasing emergence of drug resistant HIV strains, the present compounds were tested for their potency against clinically isolated HIV strains harboring several mutations. These mutations are associated with resistance to reverse transcriptase inhibitors and result in viruses that show various degrees of phenotypic cross-resistance to the currently commercially available drugs such as for instance AZT and delavirdine.
(§2) The antiviral activity of the compound of the present invention has been evaluated in the presence of wild type HIV and HIV mutants bearing mutations at the reverse transcriptase gene. The activity of the compounds is evaluated using a cellular assay and the residual activity is expressed in pEC50 values. The columns IIIB and A-G in the table list the pEC50 values against various strains IIIB, A-G. • Strain IIIB is wild type HIV-LAI strain • Strain A contains mutation Y181C in HIV reverse transcriptase, • Strain B contains mutation K103N in HIV reverse transcriptase, • Strain C contains mutation L100I in HIV reverse transcriptase, • Strain D contains mutation Y188L in HIV reverse transcriptase, • Strain E contains mutations L100I and K103N in HIV reverse transcriptase, • Strain F contains mutations K103N and Y181C in HIV reverse transcriptase, and • Strain G contains mutations L100I, K103N, Y181C, V179I E138G L214F, V278V/I • and A327A/V in HIV reverse transcriptase.

[2] = system: Strain G (mutations L100I, K103N, Y181C, V179I E138G L214F, V278V/I and A327A/V in HIV reverse transcriptase); experiment: cellular antiviral assay, HIV mutant strain G; settings: for pEC50 G: strain G, L100I, K103N, Y181C, V179I E138G L214F, V278V/I and A327A/V; for EC50: Human immunodeficiency virus 1, read-out: pEC50 G (converted)
Protocol: as §1, §2

[3] = system: Strain D (mutation Y188L in HIV reverse transcriptase); experiment: cellular antiviral assay, HIV mutant strain D; settings: for pEC50 D: strain D, Y188L; for EC50: Human immunodeficiency virus 1, read-out: pEC50 D (converted)
Protocol: as §1, §2

[4] = system: Strain E (mutations L100I and K103N in HIV reverse transcriptase); experiment: cellular antiviral assay, HIV mutant strain E; settings: for pEC50 E: strain E, L100I and K103N; for EC50: Human immunodeficiency virus 1, read-out: pEC50 E (converted)
Protocol: as §1, §2

[5] = system: Strain A (mutation Y181C in HIV reverse transcriptase); experiment: cellular antiviral assay, HIV mutant strain A; settings: for pEC50 A: strain A, Y181C; for EC50: Human immunodeficiency virus 1, read-out: pEC50 A (converted)
Protocol: as §1, §2

[6] = system: Strain B (mutation K103N in HIV reverse transcriptase); experiment: cellular antiviral assay, HIV mutant strain B; settings: for pEC50 B: strain B, K103N; for EC50: Human immunodeficiency virus 1, read-out: pEC50 B (converted)
Protocol: as §1, §2

[7] = system: Strain C (mutation L100I in HIV reverse transcriptase); experiment: cellular antiviral assay, HIV mutant strain C; settings: for pEC50 C: strain C, L100I; for EC50: Human immunodeficiency virus 1, read-out: pEC50 C (converted)
Protocol: as §1, §2

[8] = system: Strain F (mutations K103N and Y181C in HIV reverse transcriptase); experiment: cellular antiviral assay, HIV mutant strain F; settings: for pEC50 F: strain F, K103N and Y181C; for EC50: Human immunodeficiency virus 1, read-out: pEC50 F (converted)
Protocol: as §1, §2

| Compound | pEC50 IIIB [1] | pEC50 G [2] | pEC50 D [3] | pEC50 E [4] | pEC50 A [5] | pEC50 B [6] | pEC50 C [7] | pEC50 F [8] | EC50 [1] | EC50 [3] | EC50 [4] | EC50 [5] | EC50 [6] | EC50 [7] | EC50 [8] | EC50 [2] |
| --- | --- | --- | --- | --- | --- | --- | --- | --- | --- | --- | --- | --- | --- | --- | --- | --- |
| Cc1cc(C=CC#N)ccc1N1CCc2c(C)nc(Nc3ccc(C#N)cc3)nc21 (mixture of isomers) [Compound 1] | 8.4 | 5.5 | 7.7 | 7.8 | 7.9 | 9 | 8.9 | 7.1 | – | – | – | – | – | – | – | – |
| Cc1nc(Nc2ccc(C#N)cc2)nc2c1CCN2c1c(F)cc(C=CC#N)cc1F (mixture of isomers) [Compound 2] | 9.1 | 5.7 | 8.4 | 9.1 | 7.9 | 9.2 | 9.3 | 7.4 | – | – | – | – | – | – | – | – |
| CCc1cc(C=CC#N)cc(CC)c1N1CCc2c(C)nc(Nc3ccc(C#N)cc3)nc21 (mixture of isomers) [Compound 3] | 7.9 | 5.7 | 7.8 | 8.5 | 7.8 | 8.5 | 8.7 | 7.7 | – | – | – | – | – | – | – | – |
| Cc1nc(Nc2ccc(C#N)cc2)nc2c1CCN2c1ccc(C=CC#N)cc1F (mixture of isomers) [Compound 5] | 7.7 | <4.6 | 6.6 | 6.9 | 6.3 | 7.9 | 7.8 | – | – | – | – | – | – | – | – | – |
| CCc1cc(C=CC#N)cc(Br)c1N1CCc2c(C)nc(Nc3ccc(C#N)cc3)nc21 (mixture of isomers) [Compound 6] | 8.3 | 5.5 | 7.5 | 8.3 | 7.7 | 8.3 | 8.4 | 7.5 | – | – | – | – | – | – | – | – |
| Cc1nc(Nc2ccc(C#N)cc2)nc2c1CCN2c1c(Cl)cc(C=CC#N)cc1Cl (mixture of isomers) [Compound 7a] | 8.7 | 5.4 | 7.7 | 8.6 | 7.9 | 8.7 | 9.1 | 7.7 | – | – | – | – | – | – | – | – |
| Cc1nc(Nc2ccc(C#N)cc2)nc2c1CCN2c1c(Cl)cc(C=CC#N)cc1Cl (mixture of isomers) [Compound 7b] | 9.1 | 5.4 | 7.7 | 8.5 | 8.1 | 9 | 9.1 | 7.7 | – | – | – | – | – | – | – | – |
| Cc1cc(C=CC#N)cc(Br)c1N1CCc2c(C)nc(Nc3ccc(C#N)cc3)nc21 (mixture of isomers) [Compound 9] | 8.9 | <4.6 | 8.4 | 7.8 | 8.3 | 8.4 | 8.7 | 7.7 | – | – | – | – | – | – | – | – |
| Cc1cc(C=CC#N)cc(C)c1N1CCc2c(C)nc(Nc3ccc(C#N)cc3)nc21 (mixture of isomers) [Compound 11] | 8.8 | 5.4 | 8.1 | 8.4 | 8.2 | 9 | 8.8 | 7.9 | – | – | – | – | – | – | – | – |
| CCc1cc(/C=C/C#N)ccc1N1CCc2c(C)nc(Nc3ccc(C#N)cc3)nc21 [Compound 4] | 8.4 | 5.1 | 7.9 | 8.1 | 8.3 | 9 | 9 | 7.6 | – | – | – | – | – | – | – | – |
| COc1cc(/C=C/C#N)cc(C)c1N1CCc2c(C)nc(Nc3ccc(C#N)cc3)nc21 [Compound 8] | 8.5 | 4.9 | 7.5 | 7.6 | 7.6 | 8.4 | 8.3 | 7.2 | – | – | – | – | – | – | – | – |
| Cc1nc(Nc2ccc(C#N)cc2)nc2c1CCN2c1c(F)cc(/C=C/C#N)cc1Cl [Compound 10] | 9.2 | 5.7 | 8 | 8.7 | 8.4 | 9.1 | 9.2 | 7.9 | – | – | – | – | – | – | – | – |
| Cc1nc(Nc2ccc(C#N)cc2)nc2c1CCN2c1c(F)cc(/C=C\C#N)cc1Cl [Compound 13] | 8.4 | 5.1 | 7 | 7.8 | 7.1 | 8.4 | 8.4 | 7 | – | – | – | – | – | – | – | – |
| Cc1cc(CCC#N)ccc1N1CCc2c(C)nc(Nc3ccc(C#N)cc3)nc21 [Compound 14] | 8.9 | 5.5 | 7 | 7.2 | 7.8 | 8.5 | 8.4 | 6.9 | – | – | – | – | – | – | – | – |
| Cc1cc(CCC#N)cc(C)c1N1CCc2c(C)nc(Nc3ccc(C#N)cc3)nc21 [Compound 15] | 9 | 5.7 | 7.3 | 8 | 8.2 | 8.6 | – | 8 | – | – | – | – | – | – | – | – |
| CCc1cc(CCC#N)cc(CC)c1N1CCc2c(C)nc(Nc3ccc(C#N)cc3)nc21 [Compound 16] | 8.2 | 5.8 | 7 | 8.1 | 7.7 | 8.2 | 8.6 | 7.3 | – | – | – | – | – | – | – | – |
| CCc1cc(CCC#N)ccc1N1CCc2c(C)nc(Nc3ccc(C#N)cc3)nc21 [Compound 17] | 9 | 5.7 | 7.7 | 7.8 | 8.2 | 8.9 | 8.6 | 7.2 | – | – | – | – | – | – | – | – |
| CCc1nc2cnc(Nc3ccc(C#N)cc3)nc2n1-c1c(C)cc(/C=C/C#N)cc1C [Compound 22] | – | – | – | – | – | – | – | – | 3.98 nM | 1580 nM | 3160 nM | 316 nM | 3.98 nM | 316 nM | 1580 nM | – |
| Cc1cc(/C=C/C#N)cc(C)c1-n1c(-c2ccccc2)nc2cnc(Nc3ccc(C#N)cc3)nc21 [Compound 23] | 7.7 | 5.7 | 7.7 | 6.3 | 7.1 | 7.6 | 7.5 | 6.4 | – | – | – | – | – | – | – | – |
| N#C/C=C/c1cc(F)c(-n2cnc3cnc(Nc4ccc(C#N)cc4)nc32)c(Cl)c1 [Compound 24] | – | – | – | – | – | – | – | – | 0.1 nM | 12.6 nM | 6.31 nM | 3.16 nM | 0.1 nM | 0.2 nM | 12.6 nM | 2000 nM |
| Cc1cc(/C=C/C#N)cc(C)c1-n1c(-c2ccccn2)nc2cnc(Nc3ccc(C#N)cc3)nc21 [Compound 25] | 8.1 | 5.6 | 7.5 | 5.9 | 7.5 | 7.6 | 7.2 | 7.2 | – | – | – | – | – | – | – | – |
| Cc1cc(/C=C/C#N)cc(C)c1-n1c(N)nc2cnc(Nc3ccc(C#N)cc3)nc21 [Compound 26] | – | – | – | – | – | – | – | – | 2.51 nM | 79.4 nM | 126 nM | 25.1 nM | 12.6 nM | 20 nM | 63.1 nM | 12600 nM |
| N#C/C=C/c1cc(F)c(-n2c(N)nc3cnc(Nc4ccc(C#N)cc4)nc32)c(Cl)c1 [Compound 27] | – | – | – | – | – | – | – | – | 20 nM | 501 nM | 631 nM | 79.4 nM | – | 79.4 nM | 200 nM | 6310 nM |
| Cc1cc(/C=C/C#N)cc(C)c1-n1nnc2cnc(Nc3ccc(C#N)cc3)nc21 [Compound 29] | 9.1 | 5.4 | 7.7 | 7.1 | 7.8 | 8.8 | 8.3 | – | – | – | – | – | – | – | – | – |
